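Interpolation was linear, between the two tested concentrations surrounding the appropriate level; five concentrations were tested over 48 hours in 96-well plates. GI50 marks 50% less growth. The concentration for full growth arrest is given as TGI.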
How the values were obtained:
Assay in all cases: DTP human tumour cell line panel, 48 h
HS 578T breast = system: HS 578T breast
SK-MEL-28 melanoma = system: SK-MEL-28 melanoma
NCI-H226 lung = system: NCI-H226 lung
A498 renal = system: A498 renal
HOP-62 NSCLC = system: HOP-62 NSCLC
EKVX NSCLC = system: EKVX NSCLC
UACC-62 melanoma = system: UACC-62 melanoma
K-562 leukemia = system: K-562 leukemia
KM12 colon = system: KM12 colon
SF-268 CNS = system: SF-268 CNS
T-47D breast = system: T-47D breast
NCI-H522 lung = system: NCI-H522 lung
SW-620 colon = system: SW-620 colon
MDA-MB-435 = system: MDA-MB-435
MOLT-4 leukemia = system: MOLT-4 leukemia
OVCAR-8 ovarian = system: OVCAR-8 ovarian
BT-549 breast = system: BT-549 breast
CAKI-1 renal = system: CAKI-1 renal
SK-MEL-5 melanoma = system: SK-MEL-5 melanoma
ACHN renal = system: ACHN renal
COLO 205 colon = system: COLO 205 colon
TK-10 renal = system: TK-10 renal
NCI/ADR-RES ovarian = system: NCI/ADR-RES ovarian
OVCAR-4 ovarian = system: OVCAR-4 ovarian
IGROV1 ovarian = system: IGROV1 ovarian
DU-145 prostate = system: DU-145 prostate
OVCAR-5 ovarian = system: OVCAR-5 ovarian
HCC-2998 colon = system: HCC-2998 colon
SR leukemia = system: SR leukemia
RPMI-8226 leukemia = system: RPMI-8226 leukemia
A549 NSCLC = system: A549 NSCLC
U251 CNS = system: U251 CNS
HOP-92 NSCLC = system: HOP-92 NSCLC
RXF 393 renal = system: RXF 393 renal
786-0 renal = system: 786-0 renal
OVCAR-3 ovarian = system: OVCAR-3 ovarian
PC-3 prostate = system: PC-3 prostate
NCI-H460 lung = system: NCI-H460 lung
SF-295 CNS = system: SF-295 CNS
SNB-75 CNS = system: SNB-75 CNS
MCF7 breast = system: MCF7 breast
UACC-257 melanoma = system: UACC-257 melanoma
UO-31 renal = system: UO-31 renal
HCT-116 colon = system: HCT-116 colon
MALME-3M melanoma = system: MALME-3M melanoma
MDA-MB-231 breast = system: MDA-MB-231 breast
SF-539 CNS = system: SF-539 CNS
SNB-19 CNS = system: SNB-19 CNS
LOX IMVI melanoma = system: LOX IMVI melanoma
SK-MEL-2 melanoma = system: SK-MEL-2 melanoma
HL-60(TB) leukemia = system: HL-60(TB) leukemia
HT29 colon = system: HT29 colon
HCT-15 colon = system: HCT-15 colon
SK-OV-3 ovarian = system: SK-OV-3 ovarian
SN12C renal = system: SN12C renal
M14 melanoma = system: M14 melanoma

`N/C(=N\c1nc2c(Cl)cc(Cl)cc2s1)C(Cl)(Cl)Cl` showed a GI50 (HS 578T breast) of 17.9 µM, a TGI (HS 578T breast) greater than 100 µM and a GI50 (SK-MEL-28 melanoma) of 29.2 µM. For the same molecule, the TGI (SK-MEL-28 melanoma) was greater than 100 µM, the GI50 (NCI-H226 lung) was greater than 100 µM and the TGI (NCI-H226 lung) was greater than 100 µM. It also gave a GI50 (A498 renal) of 15.3 µM, a TGI (A498 renal) of 29.4 µM and a GI50 (HOP-62 NSCLC) of 5.62 µM. It also gave a TGI (HOP-62 NSCLC) of 24.6 µM, a GI50 (EKVX NSCLC) of 6.01 µM and a TGI (EKVX NSCLC) of 26.6 µM. The GI50 (UACC-62 melanoma) was 26.7 µM, the TGI (UACC-62 melanoma) was greater than 100 µM and the GI50 (K-562 leukemia) was 55.3 µM. For the same molecule, the TGI (K-562 leukemia) was greater than 100 µM, the GI50 (KM12 colon) was 5.8 µM and the TGI (KM12 colon) was 71.8 µM. It also gave a GI50 (SF-268 CNS) of 51.5 µM, a TGI (SF-268 CNS) greater than 100 µM and a GI50 (T-47D breast) of 5.4 µM. The TGI (T-47D breast) was greater than 100 µM, the GI50 (NCI-H522 lung) was greater than 100 µM and the TGI (NCI-H522 lung) was greater than 100 µM. For the same molecule, the GI50 (SW-620 colon) was 48 µM, the TGI (SW-620 colon) was greater than 100 µM and the GI50 (MDA-MB-435) was 61.3 µM. The TGI (MDA-MB-435) was greater than 100 µM, the GI50 (MOLT-4 leukemia) was 34.6 µM and the TGI (MOLT-4 leukemia) was greater than 100 µM. The GI50 (OVCAR-8 ovarian) was greater than 100 µM, the TGI (OVCAR-8 ovarian) was greater than 100 µM and the GI50 (BT-549 breast) was 85.5 µM. It also gave a TGI (BT-549 breast) greater than 100 µM, a GI50 (CAKI-1 renal) of 9.28 µM and a TGI (CAKI-1 renal) greater than 100 µM. The GI50 (SK-MEL-5 melanoma) was greater than 100 µM, the TGI (SK-MEL-5 melanoma) was greater than 100 µM and the GI50 (ACHN renal) was 3.59 µM. It also gave a TGI (ACHN renal) of 22.2 µM, a GI50 (COLO 205 colon) of 3.46 µM and a TGI (COLO 205 colon) of 16.2 µM. For the same molecule, the GI50 (TK-10 renal) was 31.7 µM, the TGI (TK-10 renal) was greater than 100 µM and the GI50 (NCI/ADR-RES ovarian) was 88.6 µM. For the same molecule, the TGI (NCI/ADR-RES ovarian) was greater than 100 µM, the GI50 (OVCAR-4 ovarian) was 41 µM and the TGI (OVCAR-4 ovarian) was greater than 100 µM. The GI50 (IGROV1 ovarian) was 55.8 µM, the TGI (IGROV1 ovarian) was greater than 100 µM and the GI50 (DU-145 prostate) was 3.11 µM. The TGI (DU-145 prostate) was 15.8 µM, the GI50 (OVCAR-5 ovarian) was 45.2 µM and the TGI (OVCAR-5 ovarian) was greater than 100 µM. It also gave a GI50 (HCC-2998 colon) of 6.11 µM, a TGI (HCC-2998 colon) of 23.6 µM and a GI50 (SR leukemia) of 77.4 µM. For the same molecule, the TGI (SR leukemia) was greater than 100 µM, the GI50 (RPMI-8226 leukemia) was 17 µM and the TGI (RPMI-8226 leukemia) was greater than 100 µM. For the same molecule, the GI50 (A549 NSCLC) was 5.65 µM, the TGI (A549 NSCLC) was 19.4 µM and the GI50 (U251 CNS) was 6.63 µM. For the same molecule, the TGI (U251 CNS) was 96.6 µM, the GI50 (HOP-92 NSCLC) was 2.89 µM and the TGI (HOP-92 NSCLC) was 25.8 µM. It also gave a GI50 (RXF 393 renal) of 12.5 µM, a TGI (RXF 393 renal) greater than 100 µM and a GI50 (786-0 renal) greater than 100 µM. The TGI (786-0 renal) was greater than 100 µM, the GI50 (OVCAR-3 ovarian) was 5.57 µM and the TGI (OVCAR-3 ovarian) was 35.4 µM. For the same molecule, the GI50 (PC-3 prostate) was 12.9 µM, the TGI (PC-3 prostate) was 75.8 µM and the GI50 (NCI-H460 lung) was 3.63 µM. It also gave a TGI (NCI-H460 lung) of 18.2 µM, a GI50 (SF-295 CNS) of 11.5 µM and a TGI (SF-295 CNS) greater than 100 µM. For the same molecule, the GI50 (SNB-75 CNS) was greater than 100 µM, the TGI (SNB-75 CNS) was greater than 100 µM and the GI50 (MCF7 breast) was 3.02 µM. For the same molecule, the TGI (MCF7 breast) was greater than 100 µM, the GI50 (UACC-257 melanoma) was 22.4 µM and the TGI (UACC-257 melanoma) was greater than 100 µM. It also gave a GI50 (UO-31 renal) of 25.2 µM, a TGI (UO-31 renal) greater than 100 µM and a GI50 (HCT-116 colon) of 28.1 µM. It also gave a TGI (HCT-116 colon) greater than 100 µM, a GI50 (MALME-3M melanoma) greater than 100 µM and a TGI (MALME-3M melanoma) greater than 100 µM. The GI50 (MDA-MB-231 breast) was 38.3 µM, the TGI (MDA-MB-231 breast) was greater than 100 µM and the GI50 (SF-539 CNS) was 17.2 µM. For the same molecule, the TGI (SF-539 CNS) was greater than 100 µM, the GI50 (SNB-19 CNS) was 19.4 µM and the TGI (SNB-19 CNS) was greater than 100 µM. The GI50 (LOX IMVI melanoma) was 3.3 µM, the TGI (LOX IMVI melanoma) was 26.3 µM and the GI50 (SK-MEL-2 melanoma) was greater than 100 µM. The TGI (SK-MEL-2 melanoma) was greater than 100 µM, the GI50 (HL-60(TB) leukemia) was 4.91 µM and the TGI (HL-60(TB) leukemia) was greater than 100 µM. For the same molecule, the GI50 (HT29 colon) was 5.21 µM, the TGI (HT29 colon) was 29.7 µM and the GI50 (HCT-15 colon) was 53.2 µM. It also gave a TGI (HCT-15 colon) greater than 100 µM, a GI50 (SK-OV-3 ovarian) of 35.4 µM and a TGI (SK-OV-3 ovarian) greater than 100 µM. The GI50 (SN12C renal) was greater than 100 µM, the TGI (SN12C renal) was greater than 100 µM and the GI50 (M14 melanoma) was greater than 100 µM. It also gave a TGI (M14 melanoma) greater than 100 µM.

— PubChem BioAssay (NCI)
